According to ChEMBL document CHEMBL5038673, “Novel Tricyclic Heteroaryl Compounds as IRAK4 Inhibitors for Treating Cancer, Autoimmune and Inflammatory Diseases” (ACS Med Chem Lett, 2022):

Target: T1, Interleukin-1 receptor-associated kinase 4 (Homo sapiens, UniProt Q9NWZ3)
T1 sequence (Q9NWZ3 whole entry): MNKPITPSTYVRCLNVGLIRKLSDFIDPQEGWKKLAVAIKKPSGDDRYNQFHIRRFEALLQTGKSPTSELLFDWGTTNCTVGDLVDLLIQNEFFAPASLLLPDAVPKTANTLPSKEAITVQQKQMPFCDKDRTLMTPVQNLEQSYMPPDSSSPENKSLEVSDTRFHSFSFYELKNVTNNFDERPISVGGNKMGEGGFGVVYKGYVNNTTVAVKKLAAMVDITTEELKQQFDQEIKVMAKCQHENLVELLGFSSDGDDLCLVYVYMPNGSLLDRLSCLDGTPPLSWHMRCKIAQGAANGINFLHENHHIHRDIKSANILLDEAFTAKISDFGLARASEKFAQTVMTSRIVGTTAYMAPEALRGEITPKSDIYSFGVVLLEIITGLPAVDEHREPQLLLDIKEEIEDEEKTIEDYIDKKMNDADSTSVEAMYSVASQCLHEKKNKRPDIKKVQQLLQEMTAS
Test: Inhibition of IRAK4 (unknown origin) using FL- IPTSPITTTYFFFKKK peptide as substrate in presence of ATP incubated for 60 mins by fluorescence assay

**Q.** `CC(C)Nc1c(C(=O)NCCC2CCNC2)cnc2c1[nH]c1cc(C#N)ccc12` (stereo unspecified) was tested. Which IC50 did it give?
**A.** 1.9 nM
